Blank lines part the entries; values can stand above or below the molecule they belong to. Calls of active or inactive are those of the source. No cut-off for these calls is given here.
Experiments:
Type in all cases: functional
[1] = Antioxidant activity assessed as inhibition of fenton reaction-mediated PLPC peroxidation by measuring ratio of oxidized PLPC/unmodified PLPC at 1 mg/ml incubated in dark for 1 hr to 7 days by mass spectroscopic analysis
[2] = Antioxidant activity assessed as AAPH free radical scavenging activity by measuring trolox equivalent at 12.5 to 100 umol/L measured every min during 240 mins by fluorescein-based oxygen radical absorption capacity assay
[3] = Antioxidant activity assessed as inhibition of fenton reaction-mediated PLPC peroxidation by measuring ratio of [dMPC + H]+/[PLPC + H]+ at 1 mg/ml incubated in dark for 1 hr to 7 days by mass spectroscopic analysis
[4] = Antioxidant activity assessed as inhibition of fenton reaction-mediated PLPC peroxidation at 1 mg/ml incubated in dark for 3 days by mass spectroscopic analysis
[5] = Antioxidant activity assessed as DPPH free radical scavenging activity after 60 mins
[6] = Antioxidant activity assessed as AAPH free radical scavenging activity measured every min during 240 mins by fluorescein-based oxygen radical absorption capacity assay
[7] = Antioxidant activity assessed as DPPH free radical scavenging activity by measuring trolox equivalent at 1.5 to 35 umol/L after 60 mins
[8] = Antioxidant activity assessed as inhibition of fenton reaction-mediated PLPC peroxidation by measuring ratio of oxidized PLPC/unmodified PLPC at 2 mg/ml incubated in dark for 1 hr to 7 days by mass spectroscopic analysis
[9] = Antioxidant activity assessed as inhibition of fenton reaction-mediated PLPC peroxidation at 2 mg/ml incubated in dark for 1 hr by mass spectroscopic analysis
[10] = Antioxidant activity assessed as inhibition of fenton reaction-mediated PLPC peroxidation at 2 mg/ml incubated in dark for 3 days by mass spectroscopic analysis
[11] = Antioxidant activity assessed as inhibition of fenton reaction-mediated PLPC peroxidation by measuring ratio of [dMPC + H]+/[PLPC + H]+ at 2 mg/ml incubated in dark for 1 hr to 7 days by mass spectroscopic analysis
[12] = Antioxidant activity assessed as AAPH free radical scavenging activity by measuring trolox equivalent at 0.5 to 10 umol/L measured every min during 240 mins by fluorescein-based oxygen radical absorption capacity assay
[13] = Antioxidant activity assessed as AAPH free radical scavenging activity by measuring trolox equivalent at 1.5 to 35 umol/L measured every min during 240 mins by fluorescein-based oxygen radical absorption capacity assay
[14] = Antioxidant activity assessed as AAPH free radical scavenging activity by measuring trolox equivalent at 75 to 350 umol/L measured every min during 240 mins by fluorescein-based oxygen radical absorption capacity assay
[15] = Antioxidant activity assessed as inhibition of fenton reaction-mediated PLPC peroxidation by measuring ratio of dMPC/unmodified PLPC at 1 mg/ml incubated in dark for 1 hr to 7 days by mass spectroscopic analysis
[16] = Antioxidant activity assessed as DPPH free radical scavenging activity by measuring trolox equivalent at 5 to 35 umol/L after 60 mins
[17] = Antioxidant activity assessed as DPPH free radical scavenging activity by measuring trolox equivalent at 10 to 100 umol/L after 60 mins

SMILES: COc1ccc(/C=C/C=C/C(=O)c2ccccc2)cc1
inhibition [1]: Active
Activity [2]: 0.17 equiv
inhibition [3]: Active
inhibition [4]: Active

SMILES: COc1ccc(C(=O)/C=C/C=C/c2ccccc2)cc1
Activity [2]: 0.12 equiv

IC50 [5]: 52.2 µM
IC50 [6]: 4.2 µM
SMILES: Cc1c(C)c2c(c(C)c1O)CCC(C)(C(=O)O)O2 (stereo not given) [TROLOX]

IC50 [5]: 32.5 µM
IC50 [6]: 1.8 µM
SMILES: COc1cc(/C=C/C(=O)CC(=O)/C=C/c2ccc(O)c(OC)c2)ccc1O [CURCUMIN]
Activity [7]: 1.42 equiv
inhibition [8]: Active
inhibition [9]: Active
inhibition [10]: Active
inhibition [11]: Active
Activity [12]: 3.9 equiv

SMILES: O=C(/C=C/C=C/c1ccccc1)c1ccc(O)cc1
Activity [13]: 4.1 equiv

SMILES: O=C(/C=C/C=C/c1ccccc1)c1ccccc1
Activity [14]: 0.06 equiv
inhibition [1]: Active
inhibition [15]: Active

SMILES: O=C(/C=C/c1ccccc1)c1ccccc1
Activity [14]: 0.049 equiv

IC50 [5]: 74 µM
IC50 [6]: 3.3 µM
SMILES: N#CC(C#N)C(/C=C/c1ccccc1)CC(=O)c1ccccc1 (stereo not given)
Activity [13]: 2.7 equiv
Activity [16]: 0.9 equiv

IC50 [5]: 32.5 µM
IC50 [6]: 1.2 µM
SMILES: O=C(/C=C/C=C/c1ccc(O)cc1)c1ccccc1
Activity [17]: 0.29 equiv
inhibition [1]: Active
Activity [13]: 4.8 equiv
inhibition [15]: Active
